Data on 28 compounds can be found in patent publication US6150385A, “1,3,4-thiadiazoles useful for the treatment of CMV infections” (Pharmacia & Upjohn Company, priority 1999, dated 2000).

Structures are written as SMILES.

The target in the assay is T1, HCMV polymerase (Human cytomegalovirus, UniProt P08546).
T1 construct: made in house; host or cells: SF-9 insect cells infected with recombinant baculovirus
T1 sequence (P08546 whole entry): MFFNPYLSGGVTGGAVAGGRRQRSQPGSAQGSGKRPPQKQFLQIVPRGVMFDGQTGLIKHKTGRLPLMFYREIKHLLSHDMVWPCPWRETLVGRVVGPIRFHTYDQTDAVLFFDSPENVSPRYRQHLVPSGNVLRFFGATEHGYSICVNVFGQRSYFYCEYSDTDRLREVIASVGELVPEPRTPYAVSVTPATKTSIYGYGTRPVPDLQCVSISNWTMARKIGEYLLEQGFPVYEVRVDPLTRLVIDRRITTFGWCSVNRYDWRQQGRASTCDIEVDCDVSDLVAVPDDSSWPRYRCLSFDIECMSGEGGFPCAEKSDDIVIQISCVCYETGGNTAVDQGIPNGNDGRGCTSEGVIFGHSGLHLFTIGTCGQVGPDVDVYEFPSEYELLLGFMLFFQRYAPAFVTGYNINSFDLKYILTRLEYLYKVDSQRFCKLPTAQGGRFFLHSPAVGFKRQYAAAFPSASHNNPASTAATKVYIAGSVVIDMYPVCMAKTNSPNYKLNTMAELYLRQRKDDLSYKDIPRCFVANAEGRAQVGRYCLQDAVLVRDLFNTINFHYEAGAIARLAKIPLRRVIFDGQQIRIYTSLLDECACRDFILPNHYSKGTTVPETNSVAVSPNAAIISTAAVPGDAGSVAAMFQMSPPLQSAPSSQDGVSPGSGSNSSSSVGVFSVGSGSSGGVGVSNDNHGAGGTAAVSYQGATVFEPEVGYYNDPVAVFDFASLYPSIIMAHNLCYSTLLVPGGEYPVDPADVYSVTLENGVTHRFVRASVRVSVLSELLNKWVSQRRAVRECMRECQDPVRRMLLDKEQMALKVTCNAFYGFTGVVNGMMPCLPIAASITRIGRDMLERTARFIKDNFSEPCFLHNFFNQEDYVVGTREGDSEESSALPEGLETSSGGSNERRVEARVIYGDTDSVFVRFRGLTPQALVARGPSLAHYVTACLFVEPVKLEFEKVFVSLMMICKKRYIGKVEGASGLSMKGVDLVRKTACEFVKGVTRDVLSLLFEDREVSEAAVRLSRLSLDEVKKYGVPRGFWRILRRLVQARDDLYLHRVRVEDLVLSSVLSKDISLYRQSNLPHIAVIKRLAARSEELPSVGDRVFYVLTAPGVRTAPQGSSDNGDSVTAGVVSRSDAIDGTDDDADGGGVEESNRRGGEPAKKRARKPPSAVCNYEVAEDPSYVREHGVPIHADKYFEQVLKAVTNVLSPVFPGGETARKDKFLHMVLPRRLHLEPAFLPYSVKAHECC
As to the kind of experiment: HCMV polymerase assay (scintillation proximity assay). The assay is classed as biochemical. Conditions: percentage of inhibition at 25 μM concentration in CMV polymerase assay. How it is done:
The compounds of the present invention are tested in an polymerase assay to show activity described below, which is indicative of a compound's activity and thus of its use as an anti-viral agent.
The HCMV polymerase assay is performed using a scintillation proximity assay (SPA) as described in several references, such as N. D. Cook, et al., Pharmaceutical Manufacturing International, pages 49-53 (1992); K. Takeuchi, Laboratory Practice, September issue (1992); U.S. Pat. No. 4,568,649 (1986); which are incorporated by reference herein. Reactions are performed in 96-well plates. The assay is conducted in 100 μl volume with 5.4 mM HEPES (pH 7.5), 11.7 mM KCl, 4.5 mM MgCl2, 0.36 mg/ml BSA, and 90 nM ^3 H-dTTP. Assays are run with and without CHAPS, (3-[(3-Cholamidopropyl)-dimethylammonio]-1-propanesulfonate) at a final concentration of 2 mM. HCMV is diluted in enzyme dilution buffer containing 50% glycerol, 250 mM NaCl, 10 mM HEPES (pH 7.5), 100 μg/ml BSA, and 0.01% sodium azide. The HCMV polymerase, which is expressed in recombinant baculovirus-infected SF-9 cells and purified according to literature procedures, is added at 10% (or 10 μl) of the final reaction volume, i.e., 100 μl. Compounds are diluted in 50% DMSO and 10 μl are added to each well. Control wells contain an equivalent concentration of DMSO. Unless noted otherwise, reactions are initiated via the addition of 6 nM biotinylated poly(dA)-oligo(dT) template/primer to reaction mixtures containing the enzyme, substrate, and compounds of interest. Plates are incubated in a 25° C. or 37° C. H2 O bath and terminated via the addition of 40 μl/reaction of 0.5 M EDTA (pH 8) per well. Reactions are terminated within the time-frame during which substrate incorporation is linear and varied depending upon the enzyme and conditions used, i.e., 30 min. for HCMV polymerase. Ten μl of streptavidin-SPA beads (20 mg/ml in PBS/10% glycerol) are added following termination of the reaction. Plates are incubated 10 min. at 37° C., then equilibrated to room temperature, and counted on a Packard Topcount.
In TABLE 1, "MS" refers to mass spectral data, "% inhib" refers to percentage of inhibition at 25 μM concentration in CMV polymerase assay.
On the technique in general: In a scintillation proximity assay essentially only radioactivity close to the scintillant gives light.
As usually defined, the inhibition is the drop in the measured response relative to a control, in per cent. Lower therefore signals little suppression. Compound `O=C(Nc1nnc(NCCc2c[nH]cn2)s1)c1cc2ccccc2s1` [compound 330] displayed an inhibition at 25 µM of 32.2%.

The compound `O=C(Nc1nnc(NCc2cccc3ccccc23)s1)c1cccc([N+](=O)[O-])c1` [compound 190, N-{5-[(1-naphthylmethyl)amino]-1,3,4-thiadiazol-2-yl}-3-nitrobenzamide] came in with an inhibition at 25 µM of 47.1%.

As to `O=C(Nc1nnc(NCCc2ccccc2)s1)c1ccc(S(=O)(=O)F)cc1` [compound 472, 4-({[5-(phenethylamino)-1,3,4-thiadiazol-2-yl]amino}carbonyl)benzenesulfonyl fluoride], the “% Inhib” value worked out at 20.0%.

In turn, `N#Cc1ccc(C(=O)Nc2nnc(NCCC(c3ccccc3)c3ccccc3)s2)cc1` [compound 46, 4-cyano-N-{5-[(3,3-diphenylpropyl)amino]-1,3,4-thiadiazol-2-yl}benzamide] had an inhibition at 25 µM of 82.3%.

`CCCCCCCC/C=C/CCCCCCCC(=O)Nc1nnc(NCCN2CCCC2)s1` [compound 19, (E)-N-(5-{[2-(1-pyrrolidinyl)ethyl]amino}-1,3,4-thiadiazol-2-yl)-9-octadecenamide] displayed an inhibition at 25 µM of 97.7%.

For the compound `CCOc1ccc2ccccc2c1C(=O)Nc1nnc(NCc2ccccn2)s1` [compound 70, 2-ethoxy-N-{5-[(2-pyridinylmethyl)amino]-1,3,4-thiadiazol-2-yl}-1-naphthamide], 25 µM produced 70.4% inhibition.

In turn, `N#Cc1ccc(C(=O)Nc2nnc(NCC(c3ccccc3)c3ccccc3)s2)cc1` [compound 83, 4-cyano-N-{5-[(2,2-diphenylethyl)amino]-1,3,4-thiadiazol-2-yl}benzamide] had an inhibition at 25 µM of 67.7%.

As to `O=C(Nc1nnc(NC2CCCc3ccccc32)s1)c1c(Cl)cccc1Cl` (stereo not shown) [compound 76, 2,6-dichloro-N-[5-(1,2,3,4-tetrahydro-1-naphthalenylamino)-1,3,4-thiadiazol-2-yl]benzamide], the inhibition at 25 µM came out at 68.5%.

Take `O=C(/C=C/c1ccccc1)Nc1nnc(NCC2CCCCC2)s1` [compound 360, (E)-N-{5-[(cyclohexylmethyl)amino]-1,3,4-thiadiazol-2-yl}-3-phenyl-2-propenamide]: the inhibition at 25 µM turned out to be 29%.

Consider `CCOC(=O)N1CCC(Nc2nnc(NC(=O)c3cc4ccccc4s3)s2)CC1` [compound 368, ethyl 4-({5-[(1-benzothiophen-2-ylcarbonyl)amino]-1,3,4-thiadiazol-2-yl}amino)tetrahydro-1(2H)-pyridinecarboxylate], for which the inhibition at 25 µM turned out to be 28.5%.

Turning to `O=C(Nc1nnc(NCc2cccc3ccccc23)s1)c1ccc([N+](=O)[O-])o1` [compound 44, N-{5-[(1-naphthylmethyl)amino]-1,3,4-thiadiazol-2-yl}-5-nitro-2-furamide], at 25 µM the inhibition was 83.3%.

As for `CCCCCCCC/C=C/CCCCCCCC(=O)Nc1nnc(NCc2ccccn2)s1` [compound 171, (E)-N-{5-[(2-pyridinylmethyl)amino]-1,3,4-thiadiazol-2-yl}-9-octadecenamide], at 25 µM the inhibition was 49.9%.

With `CC1(C)C2CC[C@@H](CNc3nnc(NC(=O)c4ccc(C#N)cc4)s3)C1C2` (stereo partly drawn) [compound 307, 4-cyano-N-[5-({[(2R)-6,6-dimethylbicyclo[3.1.1]hept-2-yl]methyl}amino)-1,3,4-thiadiazol-2-yl]benzamide], at 25 µM the inhibition was 34.2%.

With `O=C(Nc1nnc(NC2CCCCCC2)s1)c1ccc(S(=O)(=O)F)cc1` [compound 278, 4-({[5-(cycloheptylamino)-1,3,4-thiadiazol-2-yl]amino}carbonyl)benzenesulfonyl fluoride], the “% Inhib” value amounted to 37.5%.

In turn, `CCOc1ccc2ccccc2c1C(=O)Nc1nnc(NC2CCC2)s1` [compound 314, N-[5-(cyclobutylamino)-1,3,4-thiadiazol-2-yl]-2-ethoxy-1-naphthamide] registered an inhibition at 25 µM of 33.8%.

As to `O=C(/C=C/c1ccccc1Cl)Nc1nnc(NCc2ccc3c(c2)OCO3)s1` [compound 117, (E)-N-{5-[(1,3-benzodioxol-5-ylmethyl)amino]-1,3,4-thiadiazol-2-yl}-3-(2-chlorophenyl)-2-propenamide], the inhibition at 25 µM was 61.5%.

Regarding `NS(=O)(=O)c1ccc(CNc2nnc(NC(=O)c3ccc(I)cc3)s2)cc1` [compound 57, N-(5-{[4-(aminosulfonyl)benzyl]amino}-1,3,4-thiadiazol-2-yl)-4-iodobenzamide], the inhibition at 25 µM stood at 76.3%.

In turn, `O=C(Nc1nnc(NC2CC2)s1)c1cc2ccccc2s1` [compound 287, N-[5-(cyclopropylamino)-1,3,4-thiadiazol-2-yl]-1-benzothiophene-2-carboxamide] gave an inhibition at 25 µM of 36.2%.

`O=C(/C=C/c1ccccc1)Nc1nnc(NCCCCc2ccccc2)s1` [compound 81, (E)-3-phenyl-N-{5-[(4-phenylbutyl)amino]-1,3,4-thiadiazol-2-yl}-2-propenamide]: the inhibition at 25 µM is 67.9%.

For the compound `N#Cc1ccc(C(=O)Nc2nnc(NCc3ccc4c(c3)OCO4)s2)cc1` [compound 471, N-{5-[(1,3-benzodioxol-5-ylmethyl)amino]-1,3,4-thiadiazol-2-yl}-4-cyanobenzamide], at 25 µM the inhibition was 20%.

`CC1(C)C2CC[C@@H](CNc3nnc(NC(=O)CCCCCl)s3)C1C2` (stereo partly drawn) [compound 312, 5-chloro-N-[5-({[(2R)-6,6-dimethylbicyclo[3.1.1]hept-2-yl]methyl}amino)-1,3,4-thiadiazol-2-yl]pentanamide] had an inhibition at 25 µM of 33.9%.

For the compound `N#Cc1ccc(C(=O)Nc2nnc(NCc3ccc(Cl)c(Cl)c3)s2)cc1` [compound 140, 4-cyano-N-{5-[(3,4-dichlorobenzyl)amino]-1,3,4-thiadiazol-2-yl}benzamide], 25 µM produced 56.2% inhibition.

Take `O=C(Nc1nnc(NCCCCc2ccccc2)s1)c1ccc(S(=O)(=O)F)cc1` [compound 245, 4-[({5-[(4-phenylbutyl)amino]-1,3,4-thiadiazol-2-yl}amino)carbonyl]benzenesulfonyl fluoride]: the “% Inhib” value was determined as 41.0%.

The compound `O=C(Nc1nnc(NC2CCc3ccccc32)s1)c1ccc2c(c1)C(=O)OC2=O` (stereo not shown) [compound 40, N-[5-(2,3-dihydro-1H-inden-1-ylamino)-1,3,4-thiadiazol-2-yl]-1,3-dioxo-1,3-dihydro-2-benzofuran-5-carboxamide] yielded an inhibition at 25 µM of 86.3%.

The compound `O=C(Nc1nnc(NCCCNC2CCCCC2)s1)c1ccc(Br)cc1` [compound 159, 4-bromo-N-(5-{[3-(cyclohexylamino)propyl]amino}-1,3,4-thiadiazol-2-yl)benzamide] returned an inhibition at 25 µM of 52.8%.

As to `O=C(Nc1nnc(NCCC(c2ccccc2)c2ccccc2)s1)c1cccc([N+](=O)[O-])c1` [compound 226, N-{5-[(3,3-diphenylpropyl)amino]-1,3,4-thiadiazol-2-yl}-3-nitrobenzamide], the inhibition at 25 µM is 42.9%.

In turn, `O=C(Nc1nnc(NCCC(c2ccccc2)c2ccccc2)s1)c1ccc(Br)cc1` [compound 386, 4-bromo-N-{5-[(3,3-diphenylpropyl)amino]-1,3,4-thiadiazol-2-yl}benzamide] yielded an inhibition at 25 µM of 26.9%.

The compound `CCSCCNc1nnc(NC(=O)c2c(Cl)cccc2Cl)s1` [compound 292, 2,6-dichloro-N-(5-{[2-(ethylsulfanyl)ethyl]amino}-1,3,4-thiadiazol-2-yl)benzamide] had an inhibition at 25 µM of 35.6%.
